Data: patent US12673052B2, “Combinations for the treatment of cancer” (Exelixis, Inc., priority 2020, dated 2026)

Assays:
[1] = Single-dose plasma PK, IV and oral (PEG 400:EtOH:RO water); assay type: in vivo, dogs
Procedure: (§1) Plasma PK of Compound 1 was characterized in rats and beagle dogs. Toxicokinetic (TK) evaluations of oral Compound 1 were evaluated in repeat-dose studies in rats and dogs. Plasma protein binding was determined in mouse, rat, dog, monkey, and human plasma in vitro. Biotransformation and metabolite profiling of Compound 1 were investigated in vitro using mouse, rat, dog, monkey, and human liver microsomal fractions and hepatocytes and in vivo in rats and dogs. P-glycoprotein (P-gp) and breast cancer resistance protein (BCRP) transporter interaction studies, in vitro experiments evaluating cytochrome P450 (CYP) induction and inhibition by Compound 1, and CYP and glucuronosyltransferase (UGT) substrate specificity studies of Compound 1 were also performed.
The PK and TK of Compound 1 were assessed in rats and dogs after intravenous (IV; only single dose PK) and oral (PO) administration of Compound 1 in formulations prepared in polyethylene glycol 400 (PEG 400): ethanol (EtOH): reverse osmosis water (RO Water) (45:5:50 v/v/v).
Median time to maximum plasma concentration (Tmax) occurred at approximately 2-3 hours in rats and dogs.
The mean plasma t1/2, z values were approximately 9 hours in rats and 4 hours in dogs. Interspecies scaling based on body weight to predict PK parameters in humans could not be performed because dogs (larger species) cleared Compound 1 faster than rats (smaller species). Therefore, the human PK was projected based on one species (rat). […] This apparent clearance value (CL/F) was used to predict steady-state exposure (AUC and average plasma concentration [Cavg]) in humans for the proposed first-in-human (FIH) starting dose for Study Compound 1-001.

[2] = Toxicokinetics in 28-day repeat-dose toxicity study; assay type: in vivo, rats; conditions: for half-life: oral, read-out: Half-life (t1/2)
Procedure: In a 28-day repeat-dose toxicity study in rats dosed orally daily with Compound 1 at 1, 3 or 10 mg/kg, Compound 1 exposure (Cmax and AUC0-24) increased with the increase in dose level from 1-10 mg/kg/day. […] Accumulation ratio values ranged from 0.721-1.14 for Cmax and from 0.722-0.891 for AUC0-24. Consistent with the single-dose PK data, exposure in rats at steady-state on Day 28 for low doses appeared to be approximately 20-fold higher than that observed in dogs.

[3] = In vitro plasma protein binding; assay type: in vitro ADME, human
Procedure: as §1
Compound 1 (10 μM) was 97.2 and 97.5% protein bound in monkey and human plasma, respectively.

[4] = tested on: CYP1A2; assay: Cytochrome P450 induction (mRNA levels) in fresh primary human hepatocytes; assay type: in vitro ADME
[5] = tested on: CYP2C8; assay: as above; assay type: in vitro ADME
[6] = Liver microsomal stability assay; assay type: in vitro ADME, dog; conditions: liver microsomes
Procedure: In the liver microsomal stability assay, CLint was 0.601 mL/min/g liver in mouse, 0.563 mL/min/g liver in rat, 0.315 mL/min/g liver in dog, 0.734 mL/min/g liver in monkey, and 0.639 mL/min/g liver in human. In the hepatocyte stability assay, Compound 1 CLint was 0.373 mL/min/g liver in mouse, 0.285 mL/min/g liver in rat, 1.08 mL/min/g liver in dog, 0.533 mL/min/g liver in monkey, and 0.317 mL/min/g liver in human.

[7] = GLP safety pharmacology: cardiovascular, telemeterized dogs; assay type: in vivo
Procedure: The nonclinical toxicity of Compound 1 was characterized in dose range-finding 7-day and definitive 28-day repeat-dose studies in rats and dogs, and in in vitro bacterial and mammalian genotoxicity bioassays. Compound 1 was also evaluated in definitive neurobehavioral, respiratory and cardiovascular safety pharmacology studies.

[8] = target: MET (Homo sapiens, UniProt P08581); assay: In vivo target modulation: MET phosphorylation by Western blot in SNU-5 xenografts; parameters: endogenous in cells; host or cells: SNU-5 human tumour xenografts in CB.17 SCID mice; species or system CB.17 SCID mice; conditions: for Compound 1 Plasma Exposure: qd × 14, 4 hours after last dose on Day 14
Chain of MET (P08581 25-1390): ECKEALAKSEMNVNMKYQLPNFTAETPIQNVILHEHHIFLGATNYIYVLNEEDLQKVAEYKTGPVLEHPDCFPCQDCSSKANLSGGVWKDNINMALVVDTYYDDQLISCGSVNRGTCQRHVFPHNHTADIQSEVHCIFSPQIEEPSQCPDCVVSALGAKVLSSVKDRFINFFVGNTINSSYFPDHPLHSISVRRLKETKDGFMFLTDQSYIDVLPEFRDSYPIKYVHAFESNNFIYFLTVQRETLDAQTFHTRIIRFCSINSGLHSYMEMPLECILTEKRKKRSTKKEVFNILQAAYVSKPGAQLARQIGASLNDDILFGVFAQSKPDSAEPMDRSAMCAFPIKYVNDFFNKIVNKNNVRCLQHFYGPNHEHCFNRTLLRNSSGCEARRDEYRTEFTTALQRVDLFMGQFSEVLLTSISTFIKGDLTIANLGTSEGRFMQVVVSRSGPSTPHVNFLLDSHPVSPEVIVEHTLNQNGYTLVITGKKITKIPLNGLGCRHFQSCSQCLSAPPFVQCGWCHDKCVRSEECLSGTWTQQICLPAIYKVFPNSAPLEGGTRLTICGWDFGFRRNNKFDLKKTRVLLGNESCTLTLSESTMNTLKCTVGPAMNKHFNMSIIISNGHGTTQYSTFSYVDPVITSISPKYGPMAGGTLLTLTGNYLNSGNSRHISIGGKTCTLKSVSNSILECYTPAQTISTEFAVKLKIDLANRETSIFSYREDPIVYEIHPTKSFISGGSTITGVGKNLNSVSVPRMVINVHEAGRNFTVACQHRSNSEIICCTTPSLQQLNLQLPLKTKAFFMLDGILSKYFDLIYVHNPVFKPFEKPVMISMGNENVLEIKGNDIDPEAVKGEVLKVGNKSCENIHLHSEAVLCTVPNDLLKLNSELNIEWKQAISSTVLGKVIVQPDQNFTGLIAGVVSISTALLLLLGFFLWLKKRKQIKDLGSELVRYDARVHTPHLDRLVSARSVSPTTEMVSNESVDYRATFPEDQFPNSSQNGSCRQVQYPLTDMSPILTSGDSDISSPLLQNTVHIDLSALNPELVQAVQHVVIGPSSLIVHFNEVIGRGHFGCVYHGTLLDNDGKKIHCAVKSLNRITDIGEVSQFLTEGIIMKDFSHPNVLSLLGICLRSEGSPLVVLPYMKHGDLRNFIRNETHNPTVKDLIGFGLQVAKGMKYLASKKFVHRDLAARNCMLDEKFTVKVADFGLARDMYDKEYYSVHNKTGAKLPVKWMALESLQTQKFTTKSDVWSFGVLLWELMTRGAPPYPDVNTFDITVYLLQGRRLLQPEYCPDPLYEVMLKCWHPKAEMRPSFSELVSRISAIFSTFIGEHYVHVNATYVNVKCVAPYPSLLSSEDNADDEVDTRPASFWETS
Procedure: Three human tumor cell lines, NCI-H441, MDA-MB-231, and SNU-5, were selected for use in tumor xenograft studies using athymic nude, NSG and CB.17 SCID mice, respectively. Pharmacodynamic modulation of MET phosphorylation was also measured in the NCI-H441 and SNU-5 xenografts. Tumor-bearing mice were orally dosed once-daily for 14 days (qd×14), and the tumors were resected and processed for MET phosphorylation analysis by Western blot. […]

[9] = target: AXL (Homo sapiens, UniProt P30530); assay: RTK autophosphorylation ELISA, A-172 cells stimulated with Gas6; assay type: cell-based; parameters: cell lines (PC-3, HUVEC, and A-172) stimulated with ligands to their respective receptors to induce autophosphorylation (MET, VEGFR2, and AXL); endogenous in cells; host or cells: A-172; conditions: ligand Gas6, read-out: Cellular IC50
Chain of AXL (P30530 26-894): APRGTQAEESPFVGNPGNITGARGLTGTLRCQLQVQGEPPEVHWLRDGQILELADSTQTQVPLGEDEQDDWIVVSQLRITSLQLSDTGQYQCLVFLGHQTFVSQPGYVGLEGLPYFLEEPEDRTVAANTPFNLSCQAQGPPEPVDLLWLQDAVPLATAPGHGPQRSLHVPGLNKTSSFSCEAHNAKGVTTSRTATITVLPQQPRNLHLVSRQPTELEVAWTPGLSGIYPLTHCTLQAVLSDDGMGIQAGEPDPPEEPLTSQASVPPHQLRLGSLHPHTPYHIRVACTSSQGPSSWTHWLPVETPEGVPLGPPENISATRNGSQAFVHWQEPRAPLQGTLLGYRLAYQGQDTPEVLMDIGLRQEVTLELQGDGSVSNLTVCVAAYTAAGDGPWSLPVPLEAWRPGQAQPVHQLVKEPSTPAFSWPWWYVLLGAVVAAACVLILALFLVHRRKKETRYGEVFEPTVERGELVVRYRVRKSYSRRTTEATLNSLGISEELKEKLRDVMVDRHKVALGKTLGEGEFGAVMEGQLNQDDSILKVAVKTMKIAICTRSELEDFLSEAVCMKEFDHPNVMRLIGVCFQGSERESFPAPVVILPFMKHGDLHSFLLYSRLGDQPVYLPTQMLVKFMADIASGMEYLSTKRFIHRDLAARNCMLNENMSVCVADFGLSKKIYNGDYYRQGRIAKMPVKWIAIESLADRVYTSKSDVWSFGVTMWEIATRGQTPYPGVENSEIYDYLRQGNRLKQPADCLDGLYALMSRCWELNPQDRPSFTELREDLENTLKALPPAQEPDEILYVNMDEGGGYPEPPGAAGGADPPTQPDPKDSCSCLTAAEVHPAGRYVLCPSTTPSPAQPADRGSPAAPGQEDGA
Procedure: The activity of Compound 1 was evaluated in cell-based assays that assessed the mechanistic effects of the compound in tumor and normal cells. Consistent with the biochemical data, Compound 1 is a potent inhibitor of cellular RTKs as assessed by analysis of receptor autophosphorylation as measured by enzyme-linked immunosorbent assay. Assays were performed using cell lines (PC-3, HUVEC, and A-172) stimulated with ligands to their respective receptors to induce autophosphorylation (MET, VEGFR2, and AXL) or a cell line (293A) transfected with an expression vector encoding the receptor of interest (MER). Inhibition of endogenous phosphorylated MET by Compound 1 in Hs 746T gastric carcinoma cells was also investigated due to the presence of the skip-splice mutation of exon 14 in the MET gene. This MET exon 14 alteration leads to increased MET stability and oncogenic activation, including constitutive MET phosphorylation. Also this mutation is known to occur in 3% of lung adenocarcinoma patients and to be sensitive to MET-targeted therapies (Frampton et al 2015).

[10] = Day 28 vs Day 1, 1-10 mg/kg/day
[11] = human, fresh primary human hepatocytes, mRNA induction, read-out: half-maximal effective concentration (EC50)
[12] = SNU-5, mouse, po, read-out: p-MET Inhibition %

CNC(=O)c1cc2c(Oc3ccc(NC(=O)C4(C(=O)Nc5ccc(F)cc5)CC4)cc3)ccnc2cc1OC [Compound 1, 1-N′-(4-Fluorophenvl)-1-N-[4-[7-methoxy-6-(methylcarbamovl)quinolin-4-yl]oxyphenyl]cyclopropane-1,1-dicarboxamide]
bioavailability ([1]; beagle, dog, plasma, po, 0.2-0.6 mg/kg, read-out: Oral absolute bioavailability): 47 to 70% | half-life ([1]; beagle, dog, plasma, after oral administration, read-out: terminal phase half-life (t1/2, z)): 1 to 3 h | Tmax ([1]; beagle, dog, plasma, single oral dose, read-out: Median time to maximum plasma concentration (Tmax)): 2 to 3 h | clearance ([1]; beagle, dog, plasma, single-dose IV 0.2-0.6 mg/kg, read-out: mean plasma clearance (CL) (converted)): 6.33 mL/min/kg | half-life ([1]; beagle, dog, plasma, single-dose IV, read-out: mean plasma t1/2, z (converted)): ~4 h | Vd ([1]; beagle, dog, plasma, single-dose IV, read-out: mean volume of distribution at steady-state (Vss)): 1.98 L/kg | plasma clearance in dogs relative to rats ([1]; higher in dogs than in rats): approximately 16 fold | increase of exposure (Cmax and AUC0-inf) with dose ([1]; single oral doses 0.2-0.6 mg/kg): approximately dose proportionally | Sex differences in mean Cmax and AUC values ([2]; 28-day study): less than 2 fold | steady-state exposure in rats relative to dogs ([2]; Day 28, dose-normalized AUC0-24, ss, higher in rats): approximately 20 fold | Accumulation ratio for AUC0-24 [2, 10]: 0.722-0.891 | Accumulation ratio for Cmax [2, 10]: 0.721-1.14 | half-life ([2]; both sexes, rat, plasma, Day 1): 3.51 to 3.7 h | half-life ([2]; both sexes, rat, plasma, Day 28): 6.7 to 8.97 h | Tmax ([2]; both sexes, rat, plasma, oral daily 1, 3 or 10 mg/kg, Days 1 and 28): 2 to 8 h | protein bound ([3]; 10 μM): 97.5% | fraction unbound ([3]; human, plasma, 0.2 and 1 μM): < 0.01 | EC50 [4, 11]: 930 nM | maximal induction effect (Emax) ([4]; mRNA, 0.1-100 μM): 5 fold | EC50 [5, 11]: 2010 nM | maximal induction effect (Emax) ([5]; mRNA, 0.1-100 μM): 7 fold | CLint [6]: 0.315 mL/min/g liver | plasma Cmax relative to hERG channel IC50 ([7]; 18 mg/kg single dose, Cmax higher than IC50): approximately 2 fold | Cmax ([7]; dog, plasma, oral, single dose 18 mg/kg, male telemeterized dogs): ~7 µM | QTc interval ([7]; male telemeterized dogs, single doses as high as 18 mg/kg): no QTc interval prolongation | effect on cardiovascular parameters ([7]; single oral doses as high as 18 mg/kg, through 18 hours postdose): no significant effect on cardiovascular parameters | Compound 1 Plasma Exposure ([8]; 3 mg/kg): 1.88 µM | Compound 1 Plasma Exposure ([8]; 10 mg/kg): 7.64 µM | inhibition at 3 mg/kg [8, 12]: 26% | inhibition at 10 mg/kg [8, 12]: 67% | IC50 [9]: 3.4 nM
